A short description of series [1]: Dissolution studies (Pion Rainbow, FaSSIF / SGF-FaSSIF). It counts as physicochemical. The settings on record: composition of the disclosure vs bulk ezetimibe; powders resuspended in aq. 1% PVPVA; FaSSIF and SGF-FaSSIF. Here is the method: The dissolution properties were measured with a Pion Rainbow R2D instrument (Pion Inc UK Ltd, Forest Row, UK). The suspensions were prepared at concentration of 5 mg/mL in 1% PVPVA suspension vehicle loaded at 40 μg/mL (ezetimibe) or 30 μg/ml (apalutamide). Fasted simulated intestinal fluid (FaSSIF) media pH 6.5 was used for dissolution studies of Ezetimibe. Dissolution studies for Apalutamide was done in biphasic mode starting in Simulated gastric media (SGF) (0.025 M HCl pH 1.6) for 15 min. Thereafter, the content of the SGF was converted to FaSSIF medium pH 6.5 by addition of 10 mL of FaSSIF concentrate media. The temperature was set to 37° C. and stirring rate to 150 rpm. API concentrations were continuously monitored with a fiber optical UV-Vis probes path length. UV-Vis spectra were collected in 30-sec intervals using the Pion Rainbow Dynamic with either 10 mm tips for Ezetimibe or 5 mm tips for Apalutamide. The API concentration was calculated based on a standard curve using 2nd derivative data transformation (stock solution 5 mg/mL in ethanol of respective API) at a range of 293-320 nm wavelength for both Ezetimibe and Apalutamide).

A short description of series [2]: Stability tests of solid material (SEM, XRD, HPLC). The settings on record: materials prepared according to the disclosure; up to T30; crystallinity confirmed by XRD. It counts as physicochemical. Here is the method:
Solid material was weighted in separate vials (approx. 150 mg of material in each) and transferred to stability chambers. Three conditions were applied: ambient conditions (material in closed vial at RT), 25° C./65% RH and 40° C./75% RH. Material was analyzed at T0 as freshly prepared, T7 ([…]), T14 ([…]) and T30 (30 d) after the initiation of stability studies. SEM, XRD and dissolution/permeability studies were used to evaluate the crystallinity, particle size/morphology and performance of the material.

Regarding `O=C1[C@H](CC[C@H](O)c2ccc(F)cc2)[C@@H](c2ccc(O)cc2)N1c1ccc(F)cc1` [Eze, ezetimibe], the “dissolution versus bulk material” value in series [1] is given as “dissolves significantly faster”. For the same compound, the “Stability of nanocrystalline material over the stability study” value in series [2] is recorded as “stable over the whole stability study”.

The record behind these values is patent US12303845B2, “Method for crystallization of active pharmaceutical ingredients” (Nanoform Finland Oyj, priority 2023, dated 2025).
